ChEMBL document CHEMBL4622974, “Leveraging an Open Science Drug Discovery Model to Develop CNS-Penetrant ALK2 Inhibitors for the Treatment of Diffuse Intrinsic Pontine Glioma” (J Med Chem, 2020)

Experiments:
Activin receptor type-1 [1] = target: T1, Activin receptor type-1 (Homo sapiens, UniProt Q04771); assay: Inhibition of human ALK2 using casein as substrate in presence of [gamma-33P]-ATP by radiometric hotspot assay
T1 sequence (Q04771 whole entry): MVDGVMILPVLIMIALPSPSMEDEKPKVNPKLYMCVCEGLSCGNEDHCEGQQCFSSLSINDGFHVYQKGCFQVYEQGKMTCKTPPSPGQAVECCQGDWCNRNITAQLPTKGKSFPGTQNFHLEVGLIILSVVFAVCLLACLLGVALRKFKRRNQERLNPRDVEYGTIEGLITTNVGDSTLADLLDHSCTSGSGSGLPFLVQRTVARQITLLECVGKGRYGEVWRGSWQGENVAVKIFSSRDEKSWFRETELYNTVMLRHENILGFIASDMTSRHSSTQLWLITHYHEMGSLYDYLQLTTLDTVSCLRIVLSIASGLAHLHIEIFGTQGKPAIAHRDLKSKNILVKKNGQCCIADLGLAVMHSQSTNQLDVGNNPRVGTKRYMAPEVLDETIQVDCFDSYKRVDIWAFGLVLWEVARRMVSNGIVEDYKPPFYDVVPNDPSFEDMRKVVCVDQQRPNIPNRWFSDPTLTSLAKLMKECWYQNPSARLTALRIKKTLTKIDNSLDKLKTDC

TGF-beta receptor type-1 [2] = target: T2, TGF-beta receptor type-1 (Homo sapiens, UniProt P36897); assay: Inhibition of human ALK5 using casein as substrate in presence of [gamma-33P]-ATP by radiometric hotspot assay; format: ADME
T2 sequence (P36897 whole entry): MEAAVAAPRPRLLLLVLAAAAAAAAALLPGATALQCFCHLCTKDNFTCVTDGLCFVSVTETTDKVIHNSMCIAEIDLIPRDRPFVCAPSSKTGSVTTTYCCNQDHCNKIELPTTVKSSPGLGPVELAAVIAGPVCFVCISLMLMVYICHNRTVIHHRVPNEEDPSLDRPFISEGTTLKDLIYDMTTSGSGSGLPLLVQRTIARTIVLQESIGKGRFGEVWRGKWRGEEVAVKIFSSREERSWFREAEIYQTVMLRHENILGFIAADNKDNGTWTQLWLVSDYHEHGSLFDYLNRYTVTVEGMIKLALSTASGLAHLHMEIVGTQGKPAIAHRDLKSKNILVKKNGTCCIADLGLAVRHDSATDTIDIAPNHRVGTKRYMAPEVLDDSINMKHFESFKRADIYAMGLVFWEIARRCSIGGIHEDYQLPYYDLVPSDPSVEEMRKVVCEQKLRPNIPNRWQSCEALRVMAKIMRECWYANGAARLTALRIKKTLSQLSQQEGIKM

Activin receptor type-1 [3] = target: T1, Activin receptor type-1; assay: Competitive displacement of PBI-6908 from nanoluciferase-fused ALK2 (unknown origin) expressed in HEK293 cells incubated for 2 hrs by NanoBRET NanoGlo substrate based NanoBRET assay; format: cell-based
TGF-beta receptor type-1 [4] = target: T2, TGF-beta receptor type-1; assay: Inhibition of recombinant human ALK5 expressed in HEK293 cells transfected with CAGA-luciferase and Renilla luciferase reporter after 24 hrs by dual luciferase reporter assay; format: cell-based
[5] = Selectivity ratio of IC50 for human ALK4 to IC50 for human ALK2; format: ADME
Activin receptor type-1B = target: T3, Activin receptor type-1B (Homo sapiens, UniProt P36896); assay: Inhibition of human ALK4 using casein as substrate in presence of [gamma-33P]-ATP by radiometric hotspot assay; format: ADME
T3 sequence (P36896 whole entry): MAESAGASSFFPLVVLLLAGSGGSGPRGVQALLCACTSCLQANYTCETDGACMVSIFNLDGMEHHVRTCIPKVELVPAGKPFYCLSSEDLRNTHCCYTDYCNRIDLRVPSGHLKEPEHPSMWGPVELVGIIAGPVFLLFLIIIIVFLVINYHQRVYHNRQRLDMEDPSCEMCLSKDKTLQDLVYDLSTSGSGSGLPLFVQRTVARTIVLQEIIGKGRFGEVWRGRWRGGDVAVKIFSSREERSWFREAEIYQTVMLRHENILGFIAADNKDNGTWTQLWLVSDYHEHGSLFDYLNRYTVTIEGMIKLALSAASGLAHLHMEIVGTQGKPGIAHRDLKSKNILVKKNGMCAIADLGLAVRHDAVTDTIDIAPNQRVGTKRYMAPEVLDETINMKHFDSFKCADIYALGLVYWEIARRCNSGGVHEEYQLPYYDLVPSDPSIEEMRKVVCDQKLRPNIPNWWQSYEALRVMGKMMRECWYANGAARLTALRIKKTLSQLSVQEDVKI

[6] = target: Voltage-gated inwardly rectifying potassium channel KCNH2 (Homo sapiens, UniProt Q12809); assay: Inhibition of human ERG expressed in HEK293 cells after 5 mins by IonWorks barracuda patch clamp method; format: cell-based
[7] = Stability in CD1 mouse liver microsomes assessed as compound remaining at 1 uM incubated for 60 mins by LC/MS analysis; format: ADME, Microsome; details: read-out: Stability
[8] = Stability in human liver microsomes assessed as compound remaining at 1 uM incubated for 60 mins by LC/MS analysis; format: ADME, Microsome; details: read-out: Stability
[9] = Apparent permeability across apical to basolateral side in human Caco2 cells at 5 uM after 120 mins by LC-MS/MS analysis; details: Caco-2
[10] = Apparent permeability across basolateral to apical side in human Caco2 cells at 5 uM after 120 mins by LC-MS/MS analysis; format: ADME, cell-based; details: Caco-2
[11] = Efflux ratio of apparent permeability across basolateral to apical over apical to basolateral side in human Caco2 cells at 5 uM incubated for 2 hrs by LC/MS/MS analysis; details: Caco-2
[12] = Half life in CD1 mouse liver microsomes at 1 uM incubated for 60 mins by LC/MS analysis; format: ADME, Microsome
[13] = Half life in human liver microsomes at 1 uM incubated for 60 mins by LC/MS analysis; format: ADME, Microsome
[14] = Clearance in CB17 SCID mouse at 2 mg/kg, iv after 0.25 to 24 hrs by LC/MS/MS method; format: ADME, organism-based; details: in vivo
[15] = Volume of distribution at steady state in CB17 SCID mouse at 2 mg/kg, iv after 0.25 to 24 hrs by LC/MS/MS method; format: ADME, organism-based; details: in vivo, read-out: Vdss
[16] = Half life in CB17 SCID mouse at 10 mg/kg, po after 0.25 to 24 hrs by LC/MS/MS method; format: ADME, organism-based; details: in vivo
[17] = Cmax in CB17 SCID mouse at 10 mg/kg, po after 0.25 to 24 hrs by LC/MS/MS method; format: ADME, organism-based; design: dose 10 mg/kg, route oral; details: in vivo
[18] = AUCinfinity in CB17 SCID mouse at 10 mg/kg, po after 0.25 to 24 hrs by LC/MS/MS method; format: ADME, organism-based; design: dose 10 mg/kg, time infinity, route oral; details: in vivo
[19] = Oral bioavailability in CB17 SCID mouse at 10 mg/kg after 0.25 to 24 hrs by LC/MS/MS method; format: ADME, organism-based; details: in vivo
[20] = Toxicity in CB17 SCID mouse assessed as induction of adverse effect at 2 mg/kg, iv; format: organism-based; details: in vivo
[21] = Toxicity in CB17 SCID mouse assessed as induction of adverse effect at 10 mg/kg, po; format: organism-based; details: in vivo

Sequence of Voltage-gated inwardly rectifying potassium channel KCNH2 (Q12809 whole entry): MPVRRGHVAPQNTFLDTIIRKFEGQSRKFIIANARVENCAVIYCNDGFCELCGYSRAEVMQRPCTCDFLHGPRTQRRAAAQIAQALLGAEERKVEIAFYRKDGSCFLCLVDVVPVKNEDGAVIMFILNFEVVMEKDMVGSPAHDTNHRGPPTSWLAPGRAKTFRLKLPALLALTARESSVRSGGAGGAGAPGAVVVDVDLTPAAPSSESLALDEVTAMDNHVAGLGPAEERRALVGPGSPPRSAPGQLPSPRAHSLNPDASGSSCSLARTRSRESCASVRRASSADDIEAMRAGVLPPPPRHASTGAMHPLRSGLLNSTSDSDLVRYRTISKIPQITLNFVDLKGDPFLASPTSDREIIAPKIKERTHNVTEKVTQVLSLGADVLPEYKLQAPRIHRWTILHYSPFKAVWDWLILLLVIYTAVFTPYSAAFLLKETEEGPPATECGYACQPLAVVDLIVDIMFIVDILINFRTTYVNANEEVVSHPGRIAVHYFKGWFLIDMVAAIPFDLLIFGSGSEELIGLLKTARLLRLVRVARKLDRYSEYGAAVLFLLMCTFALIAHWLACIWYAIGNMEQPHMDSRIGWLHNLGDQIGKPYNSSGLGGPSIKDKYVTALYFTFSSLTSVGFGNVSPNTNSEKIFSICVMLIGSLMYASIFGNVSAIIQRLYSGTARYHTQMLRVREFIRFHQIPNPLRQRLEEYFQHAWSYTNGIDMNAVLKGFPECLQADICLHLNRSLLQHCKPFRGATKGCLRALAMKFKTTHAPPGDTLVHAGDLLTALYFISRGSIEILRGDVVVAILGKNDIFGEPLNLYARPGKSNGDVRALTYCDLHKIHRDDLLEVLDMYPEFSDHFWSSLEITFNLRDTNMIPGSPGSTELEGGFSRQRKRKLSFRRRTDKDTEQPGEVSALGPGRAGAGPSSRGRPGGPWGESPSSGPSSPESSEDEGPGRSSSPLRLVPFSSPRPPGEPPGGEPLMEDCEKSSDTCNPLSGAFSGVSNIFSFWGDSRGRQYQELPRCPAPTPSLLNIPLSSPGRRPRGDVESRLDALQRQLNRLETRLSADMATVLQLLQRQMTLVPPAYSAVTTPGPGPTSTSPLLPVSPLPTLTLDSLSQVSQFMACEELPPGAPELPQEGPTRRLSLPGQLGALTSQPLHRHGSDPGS

IC50 (Activin receptor type-1 [1]) [µM]	IC50 (TGF-beta receptor type-1 [2]) [µM]	IC50 (Activin receptor type-1 [3]) [µM]	IC50 (TGF-beta receptor type-1 [4]) [µM]	Structure (SMILES)	further results
0.011	0.487	0.049	1.51	COc1cc(-c2cncc(-c3ccc(N4CCNCC4)cc3)c2C#N)cc(OC)c1F	
0.003	0.731	0.015	0.679	COc1cc(-c2cncc(-c3ccc(N4CCNCC4)cc3)c2C#N)cc(OC)c1OC	Ratio IC50 [5]: 86; IC50 (Activin receptor type-1B): 0.257 µM; IC50 [6]: 6 µM
0.016	1.23	0.169	> 5	COc1cc(-c2cncc(-c3ccc(N4CCS(=O)(=O)CC4)cc3)c2C)cc(OC)c1OC	
0.007	2.24	0.073	1.82	COc1cc(-c2cncc(-c3ccc(N4CCN(C(C)C)CC4)cc3)c2C)cc(OC)c1OC	IC50 [6]: 3.1 µM
0.004	> 5	0.149	> 5	COc1cc(-c2cncc(-c3ccc(N4CCN(C(=O)N(C)C)CC4)cc3)c2C)cc(OC)c1OC	
0.042	4.66	0.159	> 5	COc1cc(-c2cncc(-c3ccc(N4CCNCC4)cc3)c2C2CC2)cc(OC)c1OC	
0.015	0.88	0.032	2.18	COc1cc(-c2cncc(-c3ccc(N4CCNCC4)cc3)c2F)cc(OC)c1OC	Ratio IC50 [5]: 42; IC50 (Activin receptor type-1B): 0.63 µM
				COc1cc(-c2cncc(-c3ccc(N4CCNCC4)cc3)c2)cc(OC)c1OC	Ratio IC50 [5]: 36; IC50 (Activin receptor type-1B): 0.462 µM
0.022	2.52	0.267	> 5	COc1cc(-c2cncc(-c3ccc(N4CCN(C(C)=O)CC4)cc3)c2C)cc(OC)c1OC	
0.029	1.98	0.059	6.39	COc1cc(-c2cncc(-c3ccc(N4CCN(S(C)(=O)=O)CC4)cc3)c2C)cc(OC)c1OC	Ratio IC50 [5]: 39; IC50 (Activin receptor type-1B): 1.13 µM; IC50 [6]: > 50 µM; remaining at 1 h, 1 µM [7]: 100%; remaining at 1 h, 1 µM [8]: 83.6%; Papp A→B at 2 h, 5 µM [9]: 34.5 ×10⁻⁶ cm/s; Papp B→A at 2 h, 5 µM [10]: 33.8 ×10⁻⁶ cm/s; efflux ratio at 2 h, 5 µM [11]: 1; half-life at 1 µM [12]: > 1 h; half-life at 1 µM [13]: > 1 h; clearance [14]: 7.9 mL/min/kg; Vd [15]: 0.48 L/kg; half-life [16]: 0.8 h; Cmax [17]: 1.43 µM; AUC(0-inf) [18]: 2.97 µM·h; bioavailability [19]: 7%; Activity [20]: Non-Toxic; Activity [21]: Non-Toxic
0.009	1.75	0.054	3.42	COc1cc(-c2cncc(-c3ccc(C4CCNCC4)cc3)c2C)cc(OC)c1OC	
0.006	1.65	0.067	2.09	COc1cc(-c2cncc(-c3ccc(OC4CCN(C)CC4)cc3)c2C)cc(OC)c1OC	
0.017	3.21	0.178	> 5	COc1cc(-c2cncc(-c3ccc(N4CCN(CCF)CC4)cc3)c2C)cc(OC)c1OC	
0.039	> 5	0.44	> 5	COc1cc(OC)cc(-c2cncc(-c3ccc(N4CCNCC4)cc3)c2C)c1	
0.02	2.64	0.108	> 5	COc1cc(-c2cncc(-c3ccc(CN4CCN(C)CC4)cc3)c2C)cc(OC)c1OC	
0.181	> 5	0.589	> 5	CCc1c(-c2ccc(N3CCNCC3)cc2)cncc1-c1cc(OC)c(OC)c(OC)c1	
0.006	2.85	0.031	1.91	COc1cc(-c2cncc(-c3ccc(OC4CCNCC4)cc3)c2C)cc(OC)c1OC	Ratio IC50 [5]: 227; IC50 (Activin receptor type-1B): 1.36 µM; IC50 [6]: 8.1 µM; remaining at 1 h, 1 µM [7]: 39.3%; remaining at 1 h, 1 µM [8]: 62.1%; Papp A→B at 2 h, 5 µM [9]: 4.1 ×10⁻⁶ cm/s; Papp B→A at 2 h, 5 µM [10]: 9.4 ×10⁻⁶ cm/s; efflux ratio at 2 h, 5 µM [11]: 2.3; half-life at 1 µM [12]: > 1 h; half-life at 1 µM [13]: > 1 h; clearance [14]: 6 mL/min/kg; Vd [15]: 2.23 L/kg; half-life [16]: 7.7 h; Cmax [17]: 4.71 µM; AUC(0-inf) [18]: 65.8 µM·h; bioavailability [19]: 96%; Activity [20]: Non-Toxic; Activity [21]: Non-Toxic
0.016	1.33	0.057	9.45	COc1cc(-c2cncc(-c3ccc(N4CCNCC4)cc3)c2Cl)cc(OC)c1OC	Ratio IC50 [5]: 60; IC50 (Activin receptor type-1B): 0.962 µM; IC50 [6]: 2.7 µM
0.009	4.85	0.056	> 5	COc1cc(-c2cncc(-c3ccc(N4CCN(C)CC4)cc3)c2C)cc(OC)c1OC	
0.461	> 5	0.255	> 5	COc1cc(-c2cncc(-c3ccc(N4CCNCC4)cc3)c2N)cc(OC)c1OC	
0.013	3.05	0.083	4.53	COc1cc(-c2cncc(-c3ccc(N4CCCNCC4)cc3)c2C)cc(OC)c1OC	
0.067	> 5	0.184	> 5	COc1cc(-c2cncc(-c3ccc(N4CCNCC4)cc3)c2C(F)(F)F)cc(OC)c1OC	
0.028	2.36	0.334	> 5	COc1cc(-c2cncc(-c3ccc(N4CCOCC4)cc3)c2C)cc(OC)c1OC	
0.103	> 5	0.233	> 5	COc1cc(-c2cncc(-c3ccc(N4CCNCC4)cc3)c2OC)cc(OC)c1OC	
0.008	1.05	0.04	1.43	COc1cc(-c2cncc(-c3ccc(N4C[C@@H](C)N[C@@H](C)C4)cc3)c2C)cc(OC)c1OC	IC50 [6]: 5.9 µM

Structure (SMILES)	IC50 (Activin receptor type-1 [1]) [µM]	IC50 (TGF-beta receptor type-1 [2]) [µM]	IC50 (Activin receptor type-1 [3]) [µM]	IC50 (TGF-beta receptor type-1 [4]) [µM]	further results
COc1cc(-c2cncc(-c3ccc(C4=CCN(C)CC4)cc3)c2C)cc(OC)c1OC	0.014	2.52	0.102	7.8	
